Measured values taken from ChEMBL document CHEMBL4706686, “Design, synthesis and biological evaluation of dihydrofurocoumarin derivatives as potent neuraminidase inhibitors” (Bioorg Med Chem Lett, 2021).
pIC50: −log10 of the molar value.

Test: Inhibition of Influenza virus H5N1 neuraminidase
Design: species or system H5N1 subtype

Row | SMILES | pIC50
1 | Cc1cc(=O)oc2c3c(ccc12)O/C(=C\c1ccc(O)c([N+](=O)[O-])c1)C3=O | 7.70
2 | Cc1cc(=O)oc2c3c(ccc12)O/C(=C\c1ccc(Cl)cc1Cl)C3=O | 4.44
3 | Cc1cc(=O)oc2c3c(ccc12)O/C(=C\c1ccc(OS(C)(=O)=O)cc1)C3=O | 4.49
4 | COc1ccc(/C=C2\Oc3ccc4c(C)cc(=O)oc4c3C2=O)cc1O | 7.40
5 | COc1cc(/C=C2\Oc3ccc4c(C)cc(=O)oc4c3C2=O)cc(OC)c1O | 6.82
6 | CCCOc1ccc(/C=C2\Oc3ccc4c(C)cc(=O)oc4c3C2=O)cc1 | 4.34
7 | Cc1cc(=O)oc2c3c(ccc12)O/C(=C\c1ccc([N+](=O)[O-])c(O)c1)C3=O | 7.52
8 | Cc1cc(=O)oc2c3c(ccc12)O/C(=C\c1ccccn1)C3=O | 4.40
9 | CCOc1cc(/C=C2\Oc3ccc4c(C)cc(=O)oc4c3C2=O)ccc1O | 4.52
10 | Cc1cc(=O)oc2c3c(ccc12)O/C(=C\c1cc([N+](=O)[O-])ccc1F)C3=O | 4.00
11 | CCC(CC)O[C@@H]1C=C(C(=O)O)C[C@H](N)[C@H]1NC(C)=O [OSELTAMIVIR CARBOXYLATE] | 7.40
12 | CCOC(=O)C1=C[C@@H](OC(CC)CC)[C@H](NC(C)=O)[C@@H](N)C1 [OSELTAMIVIR] | 7.00
